Values after ≈ are worked out from the molar mass of the structure shown. Active and inactive are the calls of the source. No cut-off for these calls is given here.
Key:
[1] = molecular target: Tyrosine-protein kinase JAK2 (Homo sapiens, UniProt O60674); experiment: Inhibition of recombinant epitope-tagged JAK2 (808 to 1132) (unknown origin) using LPLDKDYYVVREPGQ as substrate by beta-countiing analysis in presence of 33P-gamma-ATP
[2] = test system: Mus musculus; experiment: In vivo inhibition of JAK2 in SCID mouse xenografted with human SET2 cells assessed as total STAT5 level at 50 mg/kg, po up to 6 hrs; assay type: functional, organism-based; design: dose 50 mg/kg
[3] = Cmax in Balb nu/nu mouse at 10 mg/kg, iv by LC/MS/MS analysis; assay type: ADME, organism-based; design: dose 10 mg/kg, route intravenous; conditions: in vivo
[4] = Half life in Balb nu/nu mouse at 10 mg/kg, iv by LC/MS/MS analysis; assay type: ADME, organism-based; design: dose 10 mg/kg, route intravenous; conditions: in vivo
[5] = Cytotoxicity against human DERL7 cells expressing JAK1/3 assessed as growth inhibition after 72 hrs by Cell Titre-Glo assay; assay type: functional, cell-based; conditions: DERL7, 72 h
[6] = Oral bioavailability in Balb nu/nu mouse at 10 mg/kg by LC/MS/MS analysis; assay type: ADME, organism-based; conditions: in vivo
[7] = AUC (infinity) in Balb nu/nu mouse at 10 mg/kg, po by LC/MS/MS analysis; assay type: ADME, organism-based; design: dose 10 mg/kg, route oral, time infinity; conditions: plasma
[8] = molecular target: Tyrosine-protein kinase JAK1 (Homo sapiens) (UniProt P23458); experiment: Inhibition of JAK1 in human DERL7 cells assessed as inhibition of STAT5 phosphorylation after 2 hrs by SDS-PAGE analysis in presence of human IL-2; assay type: cell-based
[9] = test system: Mus musculus; experiment: In vivo inhibition of JAK2 in SCID mouse xenografted with human SET2 cells assessed as inhibition of STAT5 phosphorylation at 50 mg/kg, po up to 6 hrs; assay type: functional, organism-based; design: dose 50 mg/kg
[10] = Solubility of the compound at pH 7; assay type: physicochemical; conditions: buffer
[11] = Clearance in Balb nu/nu mouse at 10 mg/kg, iv by LC/MS/MS analysis; assay type: ADME, organism-based; design: dose 10 mg/kg, route intravenous; conditions: in vivo
[12] = Antitumor activity against human SET2 cells xenografted in SCID mouse assessed as tumor growth inhibition at 50 mg/kg, po bid for 10 days relative to control; assay type: functional; conditions: SET-2, 240 h, read-out: TGI
[13] = test system: Mus musculus; experiment: In vivo inhibition of JAK2 in SCID mouse xenografted with human SET2 cells assessed as total STAT5 level at 50 mg/kg, po after 3 hrs; assay type: functional, organism-based; design: dose 50 mg/kg
[14] = Cmax in Balb nu/nu mouse at 10 mg/kg, po by LC/MS/MS analysis; assay type: ADME, organism-based; design: dose 10 mg/kg, route oral; conditions: in vivo
[15] = test system: Mus musculus; experiment: In vivo inhibition of JAK2 in SCID mouse xenografted with human SET2 cells assessed as inhibition of STAT5 phosphorylation at 50 mg/kg, po after 3 hrs; assay type: functional, organism-based; design: dose 50 mg/kg
[16] = Half life in Balb nu/nu mouse at 10 mg/kg, po by LC/MS/MS analysis; assay type: ADME, organism-based; design: dose 10 mg/kg, route oral; conditions: in vivo
[17] = Volume of distribution at steady state in Balb nu/nu mouse at 10 mg/kg, iv by LC/MS/MS analysis; assay type: ADME, organism-based; design: dose 10 mg/kg, route intravenous; conditions: in vivo, read-out: Vdss
[18] = AUC (infinity) in Balb nu/nu mouse at 10 mg/kg, iv by LC/MS/MS analysis; assay type: ADME, organism-based; design: time infinity, dose 10 mg/kg, route intravenous; conditions: plasma
[19] = molecular target: T1, Tyrosine-protein kinase JAK3 (Homo sapiens) (UniProt P52333); experiment: Inhibition of JAK3 in human DERL7 cells assessed as inhibition of STAT5 phosphorylation after 2 hrs by SDS-PAGE analysis in presence of human IL-2; assay type: cell-based
T1 sequence (whole entry): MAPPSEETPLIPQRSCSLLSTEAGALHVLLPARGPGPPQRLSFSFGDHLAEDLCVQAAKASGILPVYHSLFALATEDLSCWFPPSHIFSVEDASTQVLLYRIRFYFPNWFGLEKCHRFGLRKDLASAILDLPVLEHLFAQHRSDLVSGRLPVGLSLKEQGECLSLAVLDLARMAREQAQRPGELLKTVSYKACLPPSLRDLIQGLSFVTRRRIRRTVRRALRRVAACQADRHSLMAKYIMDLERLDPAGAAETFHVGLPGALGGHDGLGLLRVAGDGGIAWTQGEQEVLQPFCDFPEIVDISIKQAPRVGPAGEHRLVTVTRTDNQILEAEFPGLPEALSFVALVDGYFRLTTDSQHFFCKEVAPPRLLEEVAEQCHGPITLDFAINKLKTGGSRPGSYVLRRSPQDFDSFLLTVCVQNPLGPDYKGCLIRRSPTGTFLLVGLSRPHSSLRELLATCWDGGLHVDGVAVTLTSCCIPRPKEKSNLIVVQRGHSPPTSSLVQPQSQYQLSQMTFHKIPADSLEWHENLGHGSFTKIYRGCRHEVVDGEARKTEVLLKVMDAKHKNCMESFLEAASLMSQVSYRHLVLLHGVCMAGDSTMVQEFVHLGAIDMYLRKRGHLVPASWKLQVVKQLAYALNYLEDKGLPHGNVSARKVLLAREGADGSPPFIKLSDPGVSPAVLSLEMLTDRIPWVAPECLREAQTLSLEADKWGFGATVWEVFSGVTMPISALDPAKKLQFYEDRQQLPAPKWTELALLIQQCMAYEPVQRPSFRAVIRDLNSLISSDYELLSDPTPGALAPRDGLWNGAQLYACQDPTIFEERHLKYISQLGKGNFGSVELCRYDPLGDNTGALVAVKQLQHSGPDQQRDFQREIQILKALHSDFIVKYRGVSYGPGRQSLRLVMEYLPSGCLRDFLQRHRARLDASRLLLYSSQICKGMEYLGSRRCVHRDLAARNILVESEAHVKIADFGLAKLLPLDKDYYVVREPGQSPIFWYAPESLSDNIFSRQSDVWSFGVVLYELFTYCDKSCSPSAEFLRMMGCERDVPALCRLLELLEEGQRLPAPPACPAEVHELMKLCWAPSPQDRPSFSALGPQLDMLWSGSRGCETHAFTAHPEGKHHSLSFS

[20] = test system: Mus musculus; experiment: Toxicity in SCID mouse xenografted with human SET2 cells assessed as body weight loss at 50 mg/kg, po bid for 10 days; assay type: organism-based; design: dose 50 mg/kg, route oral; conditions: in vivo, 240 h
[21] = species on record: Homo sapiens; experiment: Selectivity ratio of IC50 for recombinant epitope-tagged JAK1 (861 to 1152) (unknown origin) to IC50 for recombinant epitope-tagged JAK2 (808 to 1132) (unknown origin)
[22] = test system: A2780; experiment: Cytotoxicity against human A2780 cells expressing […] assessed as growth inhibition after 72 hrs by Cell Titre-Glo assay; assay type: functional, cell-based; conditions: A2780, 72 h
[23] = Cytotoxicity against human SET2 cells expressing JAK2 assessed as growth inhibition after 72 hrs by Cell Titre-Glo assay; assay type: functional, cell-based; conditions: SET-2, 72 h
[24] = species on record: Homo sapiens; experiment: Selectivity ratio of IC50 for recombinant epitope-tagged JAK3 (781 to 1124) (unknown origin) to IC50 for recombinant epitope-tagged JAK2 (808 to 1132) (unknown origin)

Sequence of Tyrosine-protein kinase JAK2 (O60674 whole entry): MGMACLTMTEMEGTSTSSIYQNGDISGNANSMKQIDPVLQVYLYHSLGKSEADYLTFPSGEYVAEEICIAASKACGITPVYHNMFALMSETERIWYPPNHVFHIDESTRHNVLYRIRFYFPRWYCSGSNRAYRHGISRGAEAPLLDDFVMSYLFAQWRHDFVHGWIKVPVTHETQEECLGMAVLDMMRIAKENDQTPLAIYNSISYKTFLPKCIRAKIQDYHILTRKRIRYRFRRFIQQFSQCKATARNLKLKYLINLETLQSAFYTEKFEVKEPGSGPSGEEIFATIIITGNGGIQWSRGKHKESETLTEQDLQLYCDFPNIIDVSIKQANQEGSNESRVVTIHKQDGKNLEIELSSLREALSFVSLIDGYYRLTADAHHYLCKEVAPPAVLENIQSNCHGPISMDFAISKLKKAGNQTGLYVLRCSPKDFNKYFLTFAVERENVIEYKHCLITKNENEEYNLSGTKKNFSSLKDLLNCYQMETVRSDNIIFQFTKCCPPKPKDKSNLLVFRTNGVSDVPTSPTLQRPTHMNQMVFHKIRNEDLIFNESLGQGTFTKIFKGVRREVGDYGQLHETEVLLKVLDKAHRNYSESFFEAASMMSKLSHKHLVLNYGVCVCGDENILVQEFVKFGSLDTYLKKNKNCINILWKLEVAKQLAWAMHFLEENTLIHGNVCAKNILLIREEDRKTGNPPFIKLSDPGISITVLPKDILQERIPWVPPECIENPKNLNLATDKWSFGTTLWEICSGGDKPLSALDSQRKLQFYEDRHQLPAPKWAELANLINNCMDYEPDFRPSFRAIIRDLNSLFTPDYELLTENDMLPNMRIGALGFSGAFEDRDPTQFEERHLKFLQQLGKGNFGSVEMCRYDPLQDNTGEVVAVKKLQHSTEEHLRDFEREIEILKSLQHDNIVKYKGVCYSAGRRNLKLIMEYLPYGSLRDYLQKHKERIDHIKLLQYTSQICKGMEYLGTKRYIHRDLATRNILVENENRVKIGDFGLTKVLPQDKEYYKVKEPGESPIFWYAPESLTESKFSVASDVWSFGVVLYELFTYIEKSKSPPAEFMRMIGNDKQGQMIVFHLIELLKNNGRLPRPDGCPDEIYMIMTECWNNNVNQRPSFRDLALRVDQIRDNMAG
Sequence of Tyrosine-protein kinase JAK1 (Homo sapiens) (P23458 whole entry): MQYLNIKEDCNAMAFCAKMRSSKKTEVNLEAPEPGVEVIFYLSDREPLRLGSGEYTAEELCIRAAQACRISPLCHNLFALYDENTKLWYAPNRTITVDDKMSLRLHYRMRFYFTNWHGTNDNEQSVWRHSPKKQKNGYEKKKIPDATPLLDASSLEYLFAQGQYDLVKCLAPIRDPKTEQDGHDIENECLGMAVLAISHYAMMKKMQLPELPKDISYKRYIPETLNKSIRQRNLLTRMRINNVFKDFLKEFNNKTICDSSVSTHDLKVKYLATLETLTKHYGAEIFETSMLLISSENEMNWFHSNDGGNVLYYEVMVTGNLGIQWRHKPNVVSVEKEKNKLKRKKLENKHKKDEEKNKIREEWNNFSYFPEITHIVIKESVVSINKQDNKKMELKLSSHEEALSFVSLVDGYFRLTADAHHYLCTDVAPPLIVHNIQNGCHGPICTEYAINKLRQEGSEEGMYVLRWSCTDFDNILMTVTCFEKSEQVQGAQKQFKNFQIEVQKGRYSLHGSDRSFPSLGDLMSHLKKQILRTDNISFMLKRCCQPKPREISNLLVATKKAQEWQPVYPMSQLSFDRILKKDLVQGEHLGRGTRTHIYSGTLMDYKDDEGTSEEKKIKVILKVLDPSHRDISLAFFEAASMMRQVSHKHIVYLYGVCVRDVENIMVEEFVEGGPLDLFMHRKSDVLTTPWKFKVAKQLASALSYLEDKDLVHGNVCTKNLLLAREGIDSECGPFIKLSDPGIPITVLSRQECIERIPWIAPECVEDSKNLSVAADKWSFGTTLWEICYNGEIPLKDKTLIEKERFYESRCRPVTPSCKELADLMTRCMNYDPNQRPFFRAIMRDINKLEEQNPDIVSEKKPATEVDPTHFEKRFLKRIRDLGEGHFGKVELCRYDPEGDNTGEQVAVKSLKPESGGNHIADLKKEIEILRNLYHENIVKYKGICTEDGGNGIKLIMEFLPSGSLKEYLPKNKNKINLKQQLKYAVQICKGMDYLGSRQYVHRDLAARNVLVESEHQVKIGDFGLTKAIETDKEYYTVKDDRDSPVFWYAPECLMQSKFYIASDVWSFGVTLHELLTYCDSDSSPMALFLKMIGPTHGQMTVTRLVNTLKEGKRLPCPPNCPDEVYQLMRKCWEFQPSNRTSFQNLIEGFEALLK

Cc1ccc(Cl)cc1-c1cn(-c2cc(N)ncn2)cc1C(N)=O
IC50 [1]: 369 nM

CCc1ccc(Cl)cc1-n1cc(-c2cc(N)ncn2)cc1C(N)=O
inhibition [2]: inactive
Cmax [3]: 45.9 µM
half-life [4]: 120 min
IC50 [5]: 2730 nM
bioavailability [6]: 50%
AUC(0-inf) [7]: 21 µM·h
inhibition [8]: Active
inhibition [9]: Active
solubility [10]: 128 µM (≈ 43.8 µg/mL)
clearance [11]: 8.3 mL/min/kg
inhibition in vivo at 50 mg/kg [12]: 41%
inhibition [13]: inactive
Cmax [14]: 12500 nM
inhibition [15]: Active
half-life [16]: 156 min
Vd [17]: 0.6 L/kg
AUC(0-inf) [18]: 49.2 µM·h
inhibition [19]: Active
Activity [20]: Non-toxic

Cc1ccc(Cl)cc1-n1cc(-c2ccnc(N)n2)cn1
IC50 [1]: 950 nM

Cc1ccc(Cl)cc1-n1cc(-c2ccnc(N)n2)cc1C(N)=O
IC50 [1]: 216 nM

CNc1cc(-c2cc(C(N)=O)n(-c3cc(Cl)ccc3C)c2)ncn1
IC50 [1]: 131 nM

Cc1ccc(Cl)cc1-c1cn(-c2ccnc(N)n2)cc1C(N)=O
IC50 [1]: 220 nM

Cc1ccc(Cl)cc1-c1cc(-c2cc(N)ncn2)[nH]c1C(N)=O
IC50 [1]: 690 nM

NC(=O)c1cc(-c2ncnc3[nH]ccc23)cn1-c1cc(C(F)(F)F)ccc1Cl
Ratio IC50 [21]: 4
IC50 [5]: 150 nM
IC50 [22]: > 10 µM
IC50 [23]: 60 nM
Ratio IC50 [24]: 4

Cc1ccc(Cl)cc1-n1cc(-c2ncnn3cccc23)cc1C(N)=O
IC50 [23]: 1920 nM

Cc1ccc(Cl)cc1-c1cn(-c2ncnn3cccc23)cc1C(N)=O
IC50 [1]: 2910 nM

NC(=O)c1cc(-c2cc(N)ncn2)cn1-c1cc(C(F)(F)F)ccc1Cl
IC50 [23]: 1570 nM

CCc1ccc(Cl)cc1-n1cc(-c2cc(NC)ncn2)cc1C(N)=O
Ratio IC50 [21]: 9
Cmax [3]: 32 µM
half-life [4]: 324 min
IC50 [5]: 1720 nM
bioavailability [6]: 9%
AUC(0-inf) [7]: 2.9 µM·h
IC50 [22]: > 10 µM
solubility [10]: 111 µM (≈ 39.5 µg/mL)
clearance [11]: 12 mL/min/kg
Cmax [14]: 1600 nM
half-life [16]: 144 min
Vd [17]: 1.4 L/kg
AUC(0-inf) [18]: 37.4 µM·h
IC50 [23]: 500 nM
Ratio IC50 [24]: 11

Cc1ccc(Cl)cc1-c1[nH]c(-c2ccnc(N)n2)cc1C(N)=O
IC50 [5]: 740 nM
IC50 [23]: 430 nM

CNc1cc(-c2cc(C(N)=O)n(-c3cc(C(F)(F)F)ccc3Cl)c2)ncn1
IC50 [1]: 331 nM

Cc1ccc(Cl)cc1-n1nc(-c2ccnc(N)n2)cc1C(N)=O
IC50 [1]: > 10000 nM

Cc1ccc(Cl)cc1-c1cn(-c2ncnc3[nH]ccc23)cc1C(N)=O
Ratio IC50 [21]: 5
IC50 [5]: > 10000 nM
IC50 [22]: > 10 µM
solubility [10]: 2 µM (≈ 0.704 µg/mL)
IC50 [23]: 500 nM
IC50 [1]: 16 nM
Ratio IC50 [24]: 14

Cc1ccc(Cl)cc1-c1cc(-c2ncnc3[nH]ccc23)[nH]c1C(N)=O
Ratio IC50 [21]: 5
IC50 [5]: 7300 nM
IC50 [22]: 9.4 µM
solubility [10]: 3 µM (≈ 1.06 µg/mL)
IC50 [23]: 460 nM
IC50 [1]: 9 nM
Ratio IC50 [24]: 6

CNc1cc(-n2cc(C(N)=O)c(-c3cc(Cl)ccc3C)c2)ncn1
IC50 [1]: 620 nM

Cc1ccc(Cl)cc1-n1cc(-c2ncnc3[nH]ccc23)cc1C(N)=O
Ratio IC50 [21]: 3
Cmax [3]: 51 µM
half-life [4]: 300 min
IC50 [5]: 460 nM
bioavailability [6]: 8%
AUC(0-inf) [7]: 1.6 µM·h
IC50 [22]: 7.4 µM
solubility [10]: 40 µM (≈ 14.1 µg/mL)
clearance [11]: 17 mL/min/kg
Cmax [14]: 690 nM
half-life [16]: 180 min
Vd [17]: 0.7 L/kg
AUC(0-inf) [18]: 26.2 µM·h
IC50 [23]: 80 nM
Ratio IC50 [24]: 5

Cc1ccc(Cl)cc1-c1ccc(-c2ccnc(N)n2)[nH]1
IC50 [1]: 972 nM

CCc1ccc(Cl)cc1-c1cc(-c2ncnc3[nH]ccc23)[nH]c1C(N)=O
Ratio IC50 [21]: 6
IC50 [5]: 1100 nM
IC50 [22]: 1.6 µM
IC50 [23]: 320 nM
IC50 [1]: 3 nM
Ratio IC50 [24]: 7

CCc1ccc(Cl)cc1-n1cc(-c2ncnn3cccc23)cc1C(N)=O
Ratio IC50 [21]: 7
Cmax [3]: 12.4 µM
half-life [4]: 330 min
IC50 [5]: 2140 nM
bioavailability [6]: 1%
AUC(0-inf) [7]: 0.07 µM·h
IC50 [22]: > 10 µM
solubility [10]: 25 µM (≈ 9.15 µg/mL)
clearance [11]: 51 mL/min/kg
Cmax [14]: 40 nM
half-life [16]: 222 min
Vd [17]: 5.8 L/kg
AUC(0-inf) [18]: 8.4 µM·h
IC50 [23]: 660 nM
Ratio IC50 [24]: 15

CCc1ccc(Cl)cc1-n1cc(-c2ncnc3[nH]ccc23)cc1C(N)=O
IC50 [5]: 20 nM
IC50 [22]: > 5 µM
IC50 [23]: 30 nM

Cc1ccc(Cl)cc1-c1ncc(-c2ccnc(N)n2)[nH]1
IC50 [1]: 1070 nM
